{"source": "ChEMBL document CHEMBL4004838", "about": "“Design and synthesis of novel phenyl -1, 4-beta-carboline-hybrid molecules as potential anticancer agents” (Eur J Med Chem, 2017)", "assay_type_in_all_cases": "functional", "key": {"RXF 393": {"system": "RXF 393", "assay": "Growth inhibition of human RXF393 cells assessed as cell growth at 100 uM incubated for 48 hrs by sulforhodamine B assay relative to control", "conditions": "RXF 393, 48 h, read-out: Activity"}, "SF-268 [1]": {"system": "SF-268", "assay": "Growth inhibition of human SF268 cells assessed as cell growth at 1 uM incubated for 48 hrs by sulforhodamine B assay relative to control", "conditions": "SF-268, 48 h, read-out: Activity"}, "NCI-H460 [2]": {"system": "NCI-H460", "assay": "Growth inhibition of human NCI-H460 cells assessed as cell growth at 1 uM incubated for 48 hrs by sulforhodamine B assay relative to control", "conditions": "NCI-H460, 48 h, read-out: Activity"}, "CAKI-1 [3]": {"system": "CAKI-1", "assay": "Growth inhibition of human Caki1 cells assessed as cell growth at 1 uM incubated for 48 hrs by sulforhodamine B assay relative to control", "conditions": "CAKI-1, 48 h, read-out: Activity"}, "SNB-75": {"system": "SNB-75", "assay": "Growth inhibition of human SNB75 cells assessed as cell growth at 0.1 uM incubated for 48 hrs by sulforhodamine B assay relative to control", "conditions": "SNB-75, 48 h, read-out: Activity"}, "SK-MEL-28": {"system": "SK-MEL-28", "assay": "Growth inhibition of human SK-MEL-28 cells assessed as cell growth at 0.1 uM incubated for 48 hrs by sulforhodamine B assay relative to control", "conditions": "SK-MEL-28, 48 h, read-out: Activity"}, "PC-3": {"system": "PC-3", "assay": "Growth inhibition of human PC3 cells assessed as cell growth at 0.01 uM incubated for 48 hrs by sulforhodamine B assay relative to control", "conditions": "PC-3, 48 h, read-out: Activity"}, "NCI-H460 [4]": {"system": "NCI-H460", "assay": "Growth inhibition of human NCI-H460 cells assessed as cell growth at 100 uM incubated for 48 hrs by sulforhodamine B assay relative to control", "conditions": "NCI-H460, 48 h, read-out: Activity"}, "HOP-62": {"system": "HOP-62", "assay": "Growth inhibition of human HOP62 cells assessed as cell growth at 100 uM incubated for 48 hrs by sulforhodamine B assay relative to control", "conditions": "HOP-62, 48 h, read-out: Activity"}, "HOP-92": {"system": "HOP-92", "assay": "Growth inhibition of human HOP92 cells assessed as cell growth at 0.1 uM incubated for 48 hrs by sulforhodamine B assay relative to control", "conditions": "HOP-92, 48 h, read-out: Activity"}, "M14": {"system": "M14", "assay": "Growth inhibition of human M14 cells assessed as cell growth at 100 uM incubated for 48 hrs by sulforhodamine B assay relative to control", "conditions": "M14, 48 h, read-out: Activity"}, "MCF7 [5]": {"system": "MCF7", "assay": "Growth inhibition of human MCF7 cells assessed as cell growth at 0.01 uM incubated for 48 hrs by sulforhodamine B assay relative to control", "conditions": "MCF7, 48 h, read-out: Activity"}, "OVCAR-5": {"system": "OVCAR-5", "assay": "Growth inhibition of human OVCAR5 cells assessed as cell growth at 0.01 uM incubated for 48 hrs by sulforhodamine B assay relative to control", "conditions": "OVCAR-5, 48 h, read-out: Activity"}, "NCI/ADR-RES": {"system": "NCI/ADR-RES", "assay": "Growth inhibition of human NCI-ADR-RES cells incubated for 48 hrs by sulforhodamine B assay"}, "OVCAR-3": {"system": "OVCAR-3", "assay": "Growth inhibition of human OVCAR3 cells assessed as cell growth at 0.01 uM incubated for 48 hrs by sulforhodamine B assay relative to control", "conditions": "OVCAR-3, 48 h, read-out: Activity"}, "A498": {"system": "A498", "assay": "Growth inhibition of human A498 cells assessed as cell growth at 100 uM incubated for 48 hrs by sulforhodamine B assay relative to control", "conditions": "A498, 48 h, read-out: Activity"}, "NCI-H23": {"system": "NCI-H23", "assay": "Growth inhibition of human NCI-H23 cells assessed as cell growth at 0.1 uM incubated for 48 hrs by sulforhodamine B assay relative to control", "conditions": "NCI-H23, 48 h, read-out: Activity"}, "K562": {"system": "K562", "assay": "Growth inhibition of human K562 cells assessed as cell growth at 1 uM incubated for 48 hrs by sulforhodamine B assay relative to control", "conditions": "K562, 48 h, read-out: Activity"}, "BT-549 [6]": {"system": "BT-549", "assay": "Growth inhibition of human BT549 cells assessed as cell growth at 0.1 uM incubated for 48 hrs by sulforhodamine B assay relative to control", "conditions": "BT-549, 48 h, read-out: Activity"}, "CAKI-1 [7]": {"system": "CAKI-1", "assay": "Growth inhibition of human Caki1 cells assessed as cell growth at 0.01 uM incubated for 48 hrs by sulforhodamine B assay relative to control", "conditions": "CAKI-1, 48 h, read-out: Activity"}, "MOLT-4": {"system": "MOLT-4", "assay": "Growth inhibition of human MOLT4 cells assessed as cell growth at 100 uM incubated for 48 hrs by sulforhodamine B assay relative to control", "conditions": "MOLT-4, 48 h, read-out: Activity"}, "RPMI-8226": {"system": "RPMI-8226", "assay": "Growth inhibition of human RPMI8226 cells assessed as cell growth at 0.1 uM incubated for 48 hrs by sulforhodamine B assay relative to control", "conditions": "RPMI-8226, 48 h, read-out: Activity"}, "UACC-257": {"system": "UACC-257", "assay": "Growth inhibition of human UACC257 cells assessed as cell growth at 0.1 uM incubated for 48 hrs by sulforhodamine B assay relative to control", "conditions": "UACC-257, 48 h, read-out: Activity"}, "SF-268 [8]": {"system": "SF-268", "assay": "Growth inhibition of human SF268 cells incubated for 48 hrs by sulforhodamine B assay", "conditions": "SF-268, 48 h"}, "MCF7 [9]": {"system": "MCF7", "assay": "Growth inhibition of human MCF7 cells assessed as cell growth at 1 uM incubated for 48 hrs by sulforhodamine B assay relative to control", "conditions": "MCF7, 48 h, read-out: Activity"}, "HT-29": {"system": "HT-29", "assay": "Growth inhibition of human HT-29 cells assessed as cell growth at 100 uM incubated for 48 hrs by sulforhodamine B assay relative to control", "conditions": "HT-29, 48 h, read-out: Activity"}, "HCT-116": {"system": "HCT-116", "assay": "Growth inhibition of human HCT116 cells assessed as cell growth at 100 uM incubated for 48 hrs by sulforhodamine B assay relative to control", "conditions": "HCT-116, 48 h, read-out: Activity"}, "BT-549 [10]": {"system": "BT-549", "assay": "Growth inhibition of human BT549 cells incubated for 48 hrs by sulforhodamine B assay", "conditions": "BT-549, 48 h"}, "SR": {"system": "SR", "assay": "Growth inhibition of human SR cells incubated for 48 hrs by sulforhodamine B assay"}, "OVCAR-4": {"system": "OVCAR-4", "assay": "Growth inhibition of human OVCAR4 cells incubated for 48 hrs by sulforhodamine B assay", "conditions": "OVCAR-4, 48 h"}, "[11]": {"conditions": "read-out: LC50 (the source's name)"}, "[12]": {"conditions": "read-out: pLC50 (the source's name) (converted)"}}}
{"smiles": "c1ccc2[nH]c(-c3ccc(-c4nccc5c4[nH]c4ccccc45)cc3)nc2c1", "values": [{"measurement": "growth at 100 µM", "setting": "RXF 393", "result": 68, "unit": "%"}, {"measurement": "growth at 1 µM", "setting": "SF-268 [1]", "result": 93, "unit": "%"}, {"measurement": "growth at 1 µM", "setting": "NCI-H460 [2]", "result": 97, "unit": "%"}, {"measurement": "growth at 1 µM", "setting": "CAKI-1 [3]", "result": 91, "unit": "%"}, {"measurement": "growth at 0.1 µM", "setting": "SNB-75", "result": 78, "unit": "%"}, {"measurement": "growth at 0.1 µM", "setting": "SK-MEL-28", "result": 98, "unit": "%"}, {"measurement": "growth at 0.01 µM", "setting": "PC-3", "result": 98, "unit": "%"}, {"measurement": "growth at 100 µM", "setting": "NCI-H460 [4]", "result": 38, "unit": "%"}, {"measurement": "growth at 100 µM", "setting": "HOP-62", "result": 70, "unit": "%"}, {"measurement": "growth at 0.1 µM", "setting": "HOP-92", "result": 93, "unit": "%"}, {"measurement": "growth at 100 µM", "setting": "M14", "result": 76, "unit": "%"}, {"measurement": "growth at 0.01 µM", "setting": "MCF7 [5]", "result": 91, "unit": "%"}, {"measurement": "growth at 0.01 µM", "setting": "OVCAR-5", "result": 94, "unit": "%"}, {"measurement": "GI50", "setting": "NCI/ADR-RES; read-out: GI50", "result": 3.5, "unit": "µM"}, {"measurement": "CC50", "setting": "NCI/ADR-RES; [11]", "result": "> 1", "unit": "µM"}, {"measurement": "GI50", "setting": "NCI/ADR-RES; read-out: pGI50 (converted)", "result": 3.47, "unit": "µM"}, {"measurement": "CC50", "setting": "NCI/ADR-RES; read-out: pLC50 (converted)", "result": "> 100", "unit": "µM"}, {"measurement": "TGI", "setting": "NCI/ADR-RES; read-out: pTGI (converted)", "result": 15.1, "unit": "µM"}, {"measurement": "growth at 0.01 µM", "setting": "OVCAR-3", "result": 101, "unit": "%"}, {"measurement": "growth at 100 µM", "setting": "A498", "result": 85, "unit": "%"}, {"measurement": "growth at 0.1 µM", "setting": "NCI-H23", "result": 93, "unit": "%"}, {"measurement": "growth at 1 µM", "setting": "K562", "result": 100, "unit": "%"}, {"measurement": "growth at 0.1 µM", "setting": "BT-549 [6]", "result": 92, "unit": "%"}, {"measurement": "growth at 0.01 µM", "setting": "CAKI-1 [7]", "result": 91, "unit": "%"}, {"measurement": "growth at 100 µM", "setting": "MOLT-4", "result": 54, "unit": "%"}, {"measurement": "growth at 0.1 µM", "setting": "RPMI-8226", "result": 105, "unit": "%"}, {"measurement": "growth at 0.1 µM", "setting": "UACC-257", "result": 103, "unit": "%"}, {"measurement": "GI50", "setting": "SF-268 [8]; read-out: GI50", "result": 2.89, "unit": "µM"}, {"measurement": "CC50", "setting": "SF-268 [8]; [11]", "result": 8.98, "unit": "µM"}, {"measurement": "GI50", "setting": "SF-268 [8]; read-out: pGI50 (converted)", "result": 2.88, "unit": "µM"}, {"measurement": "CC50", "setting": "SF-268 [8]; [12]", "result": 89.1, "unit": "µM"}, {"measurement": "TGI", "setting": "SF-268 [8]; read-out: pTGI (converted)", "result": 10.2, "unit": "µM"}, {"measurement": "growth at 1 µM", "setting": "MCF7 [9]", "result": 91, "unit": "%"}, {"measurement": "growth at 100 µM", "setting": "HT-29", "result": 64, "unit": "%"}, {"measurement": "growth at 100 µM", "setting": "HCT-116", "result": 78, "unit": "%"}, {"measurement": "GI50", "setting": "BT-549 [10]; read-out: GI50", "result": 2.12, "unit": "µM"}, {"measurement": "CC50", "setting": "BT-549 [10]; [11]", "result": 7.21, "unit": "µM"}, {"measurement": "TGI", "setting": "BT-549 [10]; read-out: TGI", "result": 5.42, "unit": "µM"}, {"measurement": "GI50", "setting": "BT-549 [10]; read-out: pGI50 (converted)", "result": 2.14, "unit": "µM"}, {"measurement": "CC50", "setting": "BT-549 [10]; [12]", "result": 72.4, "unit": "µM"}, {"measurement": "TGI", "setting": "BT-549 [10]; read-out: pTGI (converted)", "result": 5.37, "unit": "µM"}, {"measurement": "GI50", "setting": "SR; read-out: GI50", "result": 2.21, "unit": "µM"}, {"measurement": "CC50", "setting": "SR; [11]", "result": "> 1", "unit": "µM"}, {"measurement": "TGI", "setting": "SR; read-out: TGI", "result": 6.36, "unit": "µM"}, {"measurement": "GI50", "setting": "SR; read-out: pGI50 (converted)", "result": 2.19, "unit": "µM"}, {"measurement": "CC50", "setting": "SR; [12]", "result": "> 100", "unit": "µM"}, {"measurement": "TGI", "setting": "SR; read-out: pTGI (converted)", "result": 6.31, "unit": "µM"}, {"measurement": "GI50", "setting": "OVCAR-4; read-out: GI50", "result": 2.27, "unit": "µM"}, {"measurement": "TGI", "setting": "OVCAR-4; read-out: TGI", "result": 7.75, "unit": "µM"}, {"measurement": "GI50", "setting": "OVCAR-4; read-out: pGI50 (converted)", "result": 2.29, "unit": "µM"}, {"measurement": "CC50", "setting": "OVCAR-4; [12]", "result": "> 100", "unit": "µM"}, {"measurement": "TGI", "setting": "OVCAR-4; read-out: pTGI (converted)", "result": 7.76, "unit": "µM"}]}
